Data taken from PMC10380083, “Synthesis of Prostate-Specific Membrane Antigen-Targeted Bimodal Conjugates of Cytotoxic Agents and Antiandrogens and Their Comparative Assessment with Monoconjugates” (International Journal of Molecular Sciences, 2023).
*1 amine or outer side, *2 acyl side, *3 side chain or, on linkers, in order; H or OH if unused. Where a SMILES comes first, the peptide text is derived from it. [ ]: non-standard residue; d: D form. The star is where a group is joined. GluureaLys(ε-3-ClBenzyl) = O=C(O)CC[C@H](NC(=O)N[C@@H](CCCCN(Cc1cccc(Cl)c1)*)C(=O)O)C(=O)O; X5 = O=C(O)CC[C@H](NC(=O)N[C@@H](CCCCN(Cc1ccc(C(=O)O)cc1)*)C(=O)O)C(=O)O; X6 = O=C(O)CC[C@H](NC(=O)N[C@@H](CCCCN(Cc1ccc(Br)cc1)*)C(=O)O)C(=O)O; Dolaproine = CO[C@@H]([C@@H]1CCCN1)[C@@H](C)C(=O)O; Dil = CC[C@H](C)[C@H](NC)[C@@H](CC(=O)O)OC; X2 = O=C(CCCc1cn(CCCN[*:1])nn1)[*:2]; PABC = O=C(OCc1ccc(N[*:1])cc1)[*:2]; X1 = C[C@@H](N*)[C@@H](O)c1ccccc1; Cit = NC(=O)NCCC[C@H](N)C(=O)O; Suc = O=C(CCC(=O)[*:2])[*:1]; NMeV = CN[C@H](C(=O)O)C(C)C; Ahx = NCCCCCC(=O)O

Columns and labels:
[1] = biological target: T1, PSMA (glutamate carboxypeptidase II, GCPII) (Homo sapiens, UniProt Q04609); assay: Inhibition of the NAAG cleavage reaction (affinity to PSMA), LNCaP cell extract; type: biochemical; details: SD
T1 construct: endogenous in cells; host or cells: LNCaP cells (Triton X-100 lysate, sonicated, supernatant after 1000g)
T1 sequence (Q04609 whole entry): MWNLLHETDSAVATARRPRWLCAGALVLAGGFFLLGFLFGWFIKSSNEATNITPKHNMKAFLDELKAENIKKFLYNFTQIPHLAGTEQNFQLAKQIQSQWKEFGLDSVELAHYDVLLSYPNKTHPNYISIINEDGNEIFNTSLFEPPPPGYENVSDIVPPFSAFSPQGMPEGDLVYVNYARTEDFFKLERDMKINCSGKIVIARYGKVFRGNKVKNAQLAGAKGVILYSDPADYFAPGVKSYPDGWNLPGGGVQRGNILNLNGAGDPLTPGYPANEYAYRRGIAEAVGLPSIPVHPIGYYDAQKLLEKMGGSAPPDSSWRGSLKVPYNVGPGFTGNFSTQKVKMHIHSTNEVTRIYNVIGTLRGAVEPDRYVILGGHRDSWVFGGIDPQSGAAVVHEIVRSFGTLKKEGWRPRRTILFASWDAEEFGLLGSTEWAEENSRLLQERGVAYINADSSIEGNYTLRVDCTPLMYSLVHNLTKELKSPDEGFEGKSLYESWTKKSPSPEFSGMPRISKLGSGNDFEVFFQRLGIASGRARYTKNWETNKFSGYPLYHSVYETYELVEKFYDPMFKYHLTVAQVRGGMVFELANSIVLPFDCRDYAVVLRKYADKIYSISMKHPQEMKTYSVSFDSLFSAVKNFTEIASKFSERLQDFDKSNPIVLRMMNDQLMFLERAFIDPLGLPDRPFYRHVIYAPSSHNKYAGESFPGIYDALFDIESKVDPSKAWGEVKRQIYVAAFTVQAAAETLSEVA
Method: The affinity of the four newly obtained ligands to PSMA was evaluated in vitro by inhibiting the cleavage of N-acetylaspartylglutamic acid (NAAG). One function of PSMA, also known as glutamate carboxypeptidase II (GCPII), is the cleavage of NAAG into N-acetylaspartate and glutamate. PSMA-specific ligands inhibit this reaction by interacting with the protein. Thus, the calculation of the values of half-maximum inhibition (IC50) allows evaluation of the binding efficiency of the synthesized compounds to the protein. The analogues of the obtained ligands 6a–d without a lysine residue in their structure were chosen as comparison ligands. Also, some ligands previously described in the literature were chosen as references.
LNCaP cells were cultured in RPMI medium with 10% FBS (Gibco, Billings, MT, USA), 1xGlutamax (Gibco) and 1x penicillin-streptomycin mixture (Gibco, USA). To suspend the cells, growth medium was removed from the 25 cm^2 vial, the cells were washed with PBS buffer and incubated for 5 min with 0.25% trypsin (1 mL). Trypsin was inactivated with complete growth medium (2 mL), washed with PBS, transferred 10^6 cells to a test tube, and 500 μL of lysis buffer (0.5% Triton X-100, 50 mM Tris-HCl (pH 7.5) and 1× Proteinase Inhibition cocktail) was added. The suspension was incubated for 30 min on ice and sonicated (seven times 7 sec at 20–30 s intervals) on ice to avoid overheating. The suspension was centrifuged for 10 min at 1000g at 4 °C, and the supernatant was used in further analysis.
The inhibition by PSMA ligands was analyzed using a non-radioactive protocol with detection of the glutamate released during the reaction. LNCaP cell line extract (10 μL) was mixed with 2 μL of the appropriate compound preparation. A series of dilutions of 2 nM-100 μM compounds was used for initial testing, with dilution steps of 3–5 times. To the resulting mixture, 1 μL of 100 μM NAAG solution was added. The mixture was incubated for 2 h at 37 °C. After incubation, the mixture was doubled with reaction buffer (13 μL) from the Amplex Red Glutamic Acid Kit (Molecular Probes Inc., Eugene, OR, USA), and the multi-component glutamate detection reaction mixture prepared according to the manufacturer’s protocol (26 μL) was added. Amplex Red stock solution: 5 μL Amplex® Red reagent stock solution, 1.25 μL HRP stock solution, 8 μL L-glutamate oxidase, 2.5 μL L-glutamate pyruvate transaminase, 0.5 μL L-alanine, 483 μL 1× reaction buffer. Incubation was performed for 1 h at 37 °C. The fluorescence of resorufin produced by conjugated glutamate detection kit reactions was detected on a VICTORX5 multidetector plate (Perkin Elmer Inc., Waltham, MA, USA) at an excitation length of 555 nm and detection at 580 nm. As a control for endogenous glutamate levels with replacement of the NAAG solution with water.

[2] = system: PC-3 cells; assay: In vitro cytotoxicity, MTS assay, PC-3; type: cell-based, human; details: 72 h, extremely low PSMA expression, range 0.5 to 800 nM, triplicates
Method: (§1) The resulting bimodal conjugates were tested in vitro on three different PCa cell lines. We used LNCaP cells with high PSMA expression, 22Rv1 cells with moderate PSMA expression and PC-3 cells with extremely low PSMA expression. Different levels of PSMA expression in 22Rv1 and LNCaP cell lines allows evaluation of the effect of the level of expression on the toxicity of the target drugs. PSMA-negative cell line PC-3 allows a qualitative assessment of non-specific toxicity of the obtained compounds.
(§2) The cytotoxicity of the investigated substances was tested using the MTS assay with some modifications. Cells were seeded in the 96-well plates (Corning, New York, NY, USA) at concentration of 7000 cells per well for PC-3 culture, 12,000 cells per well for LNCaP cells and 20,000 cells per well for 22Rv1 line. The cells were counted using the automatic cell counter EVE. All cell lines were purchased from the American Type Culture Collection (ATCC, Manassas, VA, USA). After 1 day, serial dilutions of tested substances were added to the cells. Cell culture medium with addition of DMSO in appropriate concentrations was used as a negative control. DMSO (30%) was added in culture medium as a positive control. Cells were then incubated during 72 h at 37 °C and 5% CO2. Later, the culture medium from each well was removed and 20 μL of MTS reagent (CellTiter 96 AQueous Non-Radioactive Cell Proliferation Assay, Promega) were added to each well with 100 μL of new culture medium. After 4 h incubation at 37 °C in darkness, the absorbance of the solution was measured at 490 nm wavelength using Thermo Scientific Multiskan GO spectrometer. Cell viability was calculated as a percentage compared to control cells. The absorbance of MTS reagent in culture medium without cells was taken as zero. […] Experiments were performed in triplicates. Data were analyzed using Prism 9—GraphPad version 9.2.0 software. p values < 0.05 were considered significant.

[3] = system: LNCaP cells; assay: In vitro cytotoxicity, MTS assay, LNCaP; type: cell-based; details: 72 h, high PSMA expression, range 0.5 to 800 nM, triplicates
Method: as §1, §2

[4] = system: 22Rv1 cells; assay: In vitro cytotoxicity, MTS assay, 22Rv1; type: cell-based, human; details: 72 h, moderate PSMA expression, range 0.5 to 800 nM, triplicates
Method: as §1, §2

[5] = inhibition of NAAG cleavage, LNCaP cell extract, 2 h at 37 °C, glutamate detected with Amplex Red kit (fluorescence)

Compound | IC50 [1] | IC50 [1, 5] | CC50, PC-3 [2] | CC50, LNCaP [3] | CC50, 22Rv1 [4]
[N-]=[N+]=NCCCNC(=O)[C@H](CCCCN)NC(=O)[C@H](Cc1ccc(O)cc1)NC(=O)[C@H](Cc1ccccc1)NC(=O)CCC(=O)NCCCCCC(=O)N(CCCC[C@H](NC(=O)N[C@@H](CCC(=O)O)C(=O)O)C(=O)O)Cc1cccc(Cl)c1 [6a, (3S,7S,25S,28S,31S)-31-(4-aminobutyl)-36-azido-25-benzyl-12-(3-chlorobenzyl)-28-(4-hydroxybenzyl)-5,13,20,23,26,29,32-heptaoxo-4,6,12,19,24,27,30,33-octaazahexatriacontane-1,3,7-tricarboxylic acid] | 13 ± 3 nM |  |  |  | 
[N-]=[N+]=NCCCNC(=O)[C@H](CCCCN)NC(=O)[C@H](Cc1ccc(O)cc1)NC(=O)[C@H](Cc1ccccc1)NC(=O)CCC(=O)NCCCCCC(=O)N(CCCC[C@H](NC(=O)N[C@@H](CCC(=O)O)C(=O)O)C(=O)O)Cc1ccc(Br)cc1 [6b, (3S,7S,25S,28S,31S)-31-(4-aminobutyl)-36-azido-25-benzyl-12-(4-bromobenzyl)-28-(4-hydroxybenzyl)-5,13,20,23,26,29,32-heptaoxo-4,6,12,19,24,27,30,33-octaazahexatriacontane-1,3,7-tricarboxylic acid] | 11 ± 2 nM |  |  |  | 
[N-]=[N+]=NCCCNC(=O)[C@H](CCCCN)NC(=O)[C@H](Cc1ccc(O)cc1)NC(=O)[C@H](Cc1ccccc1)NC(=O)CCC(=O)NCCCCCC(=O)N(CCCC[C@H](NC(=O)N[C@@H](CCC(=O)O)C(=O)O)C(=O)O)Cc1ccc(C(=O)O)cc1 [6c, (3S,7S,25S,28S,31S)-31-(4-aminobutyl)-36-azido-25-benzyl-12-(4-carboxybenzyl)-28-(4-hydroxybenzyl)-5,13,20,23,26,29,32-heptaoxo-4,6,12,19,24,27,30,33-octaazahexatriacontane-1,3,7-tricarboxylic acid] |  | 10 ± 3 nM |  |  | 
[N-]=[N+]=NCCCNC(=O)[C@H](CCCCN)NC(=O)[C@H](Cc1ccccc1)NC(=O)[C@H](Cc1ccccc1)NC(=O)CCC(=O)NCCCCCC(=O)N(CCCC[C@H](NC(=O)N[C@@H](CCC(=O)O)C(=O)O)C(=O)O)Cc1ccc(C(=O)O)cc1 [6d, (3S,7S,25S,28S,31S)-31-(4-aminobutyl)-36-azido-25,28-dibenzyl-12-(4-carboxybenzyl)-5,13,20,23,26,29,32-heptaoxo-4,6,12,19,24,27,30,33-octaazahexatriacontane-1,3,7-tricarboxylic acid] |  | 5.5 ± 1.7 nM |  |  | 
CC[C@H](C)[C@@H]([C@@H](CC(=O)N1CCC[C@H]1[C@H](OC)[C@@H](C)C(=O)N[C@H](C)[C@@H](O)c1ccccc1)OC)N(C)C(=O)[C@@H](NC(=O)[C@H](C(C)C)N(C)C(=O)OCc1ccc(NC(=O)[C@H](CCCNC(N)=O)NC(=O)[C@@H](NC(=O)CCCc2cn(CCCNC(=O)[C@H](CCCCN)NC(=O)[C@H](Cc3ccc(O)cc3)NC(=O)[C@H](Cc3ccccc3)NC(=O)CCC(=O)NCCCCCC(=O)N(CCCC[C@H](NC(=O)N[C@@H](CCC(=O)O)C(=O)O)C(=O)O)Cc3cccc(Cl)c3)nn2)C(C)C)cc1)C(C)C [12a] ({GluureaLys(ε-3-ClBenzyl)-Ahx-Suc}-FYK[X2]V[Cit][PABC][NMeV]V[Dil][Dolaproine]-X1) |  |  | >800 nM | 157.4 ± 2.0 nM | 267.9 ± 3.8 nM
CC[C@H](C)[C@@H]([C@@H](CC(=O)N1CCC[C@H]1[C@H](OC)[C@@H](C)C(=O)N[C@H](C)[C@@H](O)c1ccccc1)OC)N(C)C(=O)[C@@H](NC(=O)[C@H](C(C)C)N(C)C(=O)OCc1ccc(NC(=O)[C@H](CCCNC(N)=O)NC(=O)[C@@H](NC(=O)CCCc2cn(CCCNC(=O)[C@H](CCCCN)NC(=O)[C@H](Cc3ccc(O)cc3)NC(=O)[C@H](Cc3ccccc3)NC(=O)CCC(=O)NCCCCCC(=O)N(CCCC[C@H](NC(=O)N[C@@H](CCC(=O)O)C(=O)O)C(=O)O)Cc3ccc(Br)cc3)nn2)C(C)C)cc1)C(C)C [12b] ({X6-Ahx-Suc}-FYK[X2]V[Cit][PABC][NMeV]V[Dil][Dolaproine]-X1) |  |  | >800 nM | 182.6 ± 2.2 nM | 247.8 ± 3.3 nM
CC[C@H](C)[C@@H]([C@@H](CC(=O)N1CCC[C@H]1[C@H](OC)[C@@H](C)C(=O)N[C@H](C)[C@@H](O)c1ccccc1)OC)N(C)C(=O)[C@@H](NC(=O)[C@H](C(C)C)N(C)C(=O)OCc1ccc(NC(=O)[C@H](CCCNC(N)=O)NC(=O)[C@@H](NC(=O)CCCc2cn(CCCNC(=O)[C@H](CCCCN)NC(=O)[C@H](Cc3ccc(O)cc3)NC(=O)[C@H](Cc3ccccc3)NC(=O)CCC(=O)NCCCCCC(=O)N(CCCC[C@H](NC(=O)N[C@@H](CCC(=O)O)C(=O)O)C(=O)O)Cc3ccc(C(=O)O)cc3)nn2)C(C)C)cc1)C(C)C [12c] ({X5-Ahx-Suc}-FYK[X2]V[Cit][PABC][NMeV]V[Dil][Dolaproine]-X1) |  |  | >800 nM | 177.8 ± 2.2 nM | 453.7 ± 9.8 nM
CC[C@H](C)[C@@H]([C@@H](CC(=O)N1CCC[C@H]1[C@H](OC)[C@@H](C)C(=O)N[C@H](C)[C@@H](O)c1ccccc1)OC)N(C)C(=O)[C@@H](NC(=O)[C@H](C(C)C)N(C)C(=O)OCc1ccc(NC(=O)[C@H](CCCNC(N)=O)NC(=O)[C@@H](NC(=O)CCCc2cn(CCCNC(=O)[C@H](CCCCN)NC(=O)[C@H](Cc3ccccc3)NC(=O)[C@H](Cc3ccccc3)NC(=O)CCC(=O)NCCCCCC(=O)N(CCCC[C@H](NC(=O)N[C@@H](CCC(=O)O)C(=O)O)C(=O)O)Cc3ccc(C(=O)O)cc3)nn2)C(C)C)cc1)C(C)C [12d] ({X5-Ahx-Suc}-FFK[X2]V[Cit][PABC][NMeV]V[Dil][Dolaproine]-X1) |  |  | >800 nM | 197.8 ± 2.7 nM | 463.3 ± 8.0 nM
NCCCC[C@H](NC(=O)N[C@@H](CCC(=O)O)C(=O)O)C(=O)O [DCL, (S)-2-(3-((S)-5-amino-1-carboxypentyl)ureido)pentanedioic acid, reference compound] |  | 547 ± 389 nM |  |  | 
C[C@]12CC[C@H](OC(=O)CCCc3cn(CCCNC(=O)[C@H](Cc4ccc(O)cc4)NC(=O)[C@H](Cc4ccccc4)NC(=O)CCC(=O)NCCCCCC(=O)N(CCCC[C@H](NC(=O)N[C@@H](CCC(=O)O)C(=O)O)C(=O)O)Cc4cccc(Cl)c4)nn3)CC1=CC[C@@H]1[C@@H]2CC[C@]2(C)C(c3cccnc3)=CC[C@@H]12 [II, reference compound] |  |  | >800 nM | >800 nM | >800 nM
